Columns and labels:
[1] = test system: Human skin (full thickness)
Procedure: Transdermal insulin delivery was assessed by the Franz cell apparatus (PermeGear, PA, USA). Human skin (full thickness) was obtained from Zen-bio (NC, US). A mechanical skin press apparatus was used to section the skin and it was kept at −20° C. until it was used. On the day of experiment, the skin samples were pre-equilibrated with the PBS for 1 h prior to use, with the dermal side submerged in the buffer. Then, the skin samples were clamped between the donor and receptor chambers, with the epidermal side facing the donor compartment. […] The sunflower oil containing insulin without biopolymer was used as a control treatment. The receptor chamber was filled with 5 ml of PBS containing sodium azide (to prevent microbial growth) and kept at 32±0.5° C. under constant stirring (500 rpm). Samples (200 μL each) were taken at the indicated time points and an equal volume of the buffer was added immediately. The amount of insulin permeation was quantified by ELISA, using a designated standard curve [Mercodia]. All of the samples were tested in three repetitions.

[2] = test system: skin

| Compound | insulin permeation across human skin ex vivo [1] | trans-epidermal water loss (TEWL), Baseline ([2]; before application, 5 hr exposure experiment) [g/m^2/hr] | increase of water loss (TEWL) ([2]; positive control, same experimental settings) [fold] |
| --- | --- | --- | --- |
| Sodium carboxymethyl cellulose [CMC] | did not enhance insulin permeation |  |  |
| CCCCCCCCCCCCOS(=O)(=O)[O-].[Na+] [SDS, sodium dodecyl sulfate] |  | 10.0 ± 2.4 | ~3 |
